Test results taken from paper PMC8274846, “Biogenic nanoporous silicon carrier improves the efficacy of buparvaquone against resistant visceral leishmaniasis” (PLoS Neglected Tropical Diseases, 2021).

Tests used:
[1] = system: axenic L.donovani amastigotes, AG83-R, SSG (SSG resistant strain generated from AG83); assay: microbe, parasite or virus in culture; type: cell-based; conditions: for Resistance index (RI), AG83-R, SSG: IC50 against drug resistant strain / IC50 against wild-type strain (AG83), axenic; for IC50: Leishmania donovani, read-out: Axenic IC50, AG83-R, SSG
Method: (§1) L. donovani AG83 (MHOM/IN/83/AG83) and GE1 (MHOM/IN/80/GE1F8R) promastigotes were routinely grown in medium 199 supplemented with 10% heat-inactivated fetal bovine serum, 2 mM L-glutamine, 20 mM HEPES, 100 U/mL penicillin, and 100 μg/mL streptomycin at 25°C. L. donovani amastigote forms were grown and maintained as described previously. Axenic amastigote forms were derived from promastigote forms by culturing them in MMA/20 (medium for axenic amastigote) at pH 5.5 [22]. Axenically grown amastigotes were maintained by sub-culture of 10^5 parasites/ml repeated every fifth day under experimental conditions of 37°C temperature and 5% CO2 environment.
(§2) SSG and PMM resistant L. donovani amastigotes were generated by using the methods described previously. […] The cultures were stabilized for three subcultures. Then, the drug concentration was increased until the cell population decreased approximately to 20% for each batch. Finally, when 90% cell population of the initial count was reduced, the phenotype generated was plated on medium 199 agar plates containing the same drug concentration, and a single colony was picked for culture in medium 199 liquid media at the same drug concentration. The cultured promastigotes are converted into amastigotes as described above. Drug pressure was withdrawn, and stability was checked at one, two, and four months. SSG and PMM resistant phenotype clones were labeled as AG83-R,SSG and AG83-R, PMM, respectively.
(§3) The antileishmanial activity of the drug specimens (BPQ+NP, BPQ, SSG, AmB, PMM, and MF) against the axenic amastigotes were evaluated based on the IC50 value, which is the concentration of the specimen required to kill 50% of the parasites. The parasites were first seeded into 96-well plates at a density of 1x10^5 amastigotes/well in 200 μL medium. Then, 10 μL of the drug candidates at various concentrations were added and the final volume was adjusted to […] medium. The number of amastigotes in the wells treated with each specimen were compared to those in the untreated control wells.
(§4) Microscopic examinations were performed in duplicates with various concentrations of pure drugs or buparvaquone-loaded nanoparticles and also for control wells. The amastigotes cells were counted for all cases using a hemocytometer. The mean of the control wells was considered as 100% survival. The counts in the treated wells at various concentrations were converted into percentages. Giemsa-stained slides of the macrophages infected with amastigotes were observed under a light microscope. Then the numbers of amastigotes and infected macrophages per 100 cells were counted for each slide. The percentage (%) of inhibition was calculated by using the equation %ofinhibition=C−T/C×100, (2) where C is the number of amastigotes/infected macrophages per 100 cells in the control well and T is the number of amastigotes/infected macrophages per 100 cells in the drug-treated well.
(§5) Origin version 6.1 software was used to calculate IC50 and CC50 values by plotting a graph of the percentage of inhibition at various concentrations of all the observations.

[2] = system: axenic L.donovani amastigotes, AG83-R, PMM (PMM resistant strain generated from AG83); assay: microbe, parasite or virus in culture; type: cell-based; conditions: for Resistance index (RI), AG83-R, PMM: IC50 against drug resistant strain / IC50 against wild-type strain (AG83), axenic; for IC50: Leishmania donovani, read-out: Axenic IC50, AG83-R, PMM
Method: as §1, §2, §3, §4, §5

[3] = Cytotoxicity studies (CC50) on peritoneal macrophages; type: cell-based, BALB/c mice; conditions: BALB/c, mouse, resident peritoneal macrophages, 48 h exposure, mean ± σ, n = 3
Method: (§6) Resident peritoneal macrophages were isolated from BALB/c mice. For the isolation, 1.5 mL of sterile thioglycolate medium was injected into the peritoneal cavity to induce non-infectious inflammation. Animals were sacrificed after 5 days, and peritoneal exudates were harvested by intraperitoneal lavage. Cold RPMI (6 mL) was injected into the peritoneal cavity. After 10 min, the injected fluid was withdrawn by the same syringe. From each animal, approximately 3-4 mL of medium was recovered. After centrifugation at 200 g for 15 min, macrophages were collected. […] The cytotoxicity of the drug specimen was evaluated by the CC50 value, which is the concentration required to kill 50% of the host cell population. Macrophages were first isolated from peritoneal lavage as described above. The cells were seeded into 96-well plates at 1x10^6 cells/mL in 200 μL of RPMI-1640 supplemented with 10% FCS, 20 mM L-glutamine, 16 mM NaHCO3, penicillin (50 U/mL) and streptomycin (50 μg/ mL) at 37°C in 5% CO2 for 4 h for adherence. To remove the non-adherent cells, each plate was washed two times with phosphate buffer saline (pH 7.2). […] Microscopic examinations were performed in duplicates with various concentrations of pure drugs or buparvaquone-loaded nanoparticles and also for control wells. The amastigotes cells were counted for all cases using a hemocytometer. The mean of the control wells was considered as 100% survival. The counts in the treated wells at various concentrations were converted into percentages. Giemsa-stained slides of the macrophages infected with amastigotes were observed under a light microscope. Then the numbers of amastigotes and infected macrophages per 100 cells were counted for each slide. The percentage (%) of inhibition was calculated by using the equation %[…]×100, (2) where C is the number of amastigotes/infected macrophages per 100 cells in the control well and T is the number of amastigotes/infected macrophages per 100 cells in the drug-treated well.

[4] = system: axenic L.donovani amastigotes, wild-type AG83; assay: Antileishmanial activity against axenic amastigotes, wild-type AG83; type: cell-based; conditions: axenic amastigotes, mean ± σ, n = 4; for IC50: Leishmania donovani
Method: as §1, §3, §4, §5

[5] = system: intracellular L.donovani amastigotes, AG83-R, PMM, in macrophages; assay: microbe, parasite or virus in culture; type: cell-based; conditions: for Selectivity index (SI), AG83-R, PMM: CC50/IC50, intracellular; for IC50: Leishmania donovani, Macrophage, read-out: Cellular IC50, AG83-R, PMM
Method: as §2
(§7) The intracellular antileishmanial activity was evaluated based on the reduction in the amastigote numbers in the infected macrophages after the treatment. The method was adapted from our previous work. Briefly, 4x10^6 amastigotes in 500 μL of RPMI-1640 suspension were added to each well containing macrophages with the macrophage: parasite ratio of 1:10. The plates were incubated for 4 h at 37°C in 5% CO2. After the parasite internalization period, cells were washed at least twice with fresh media to remove non-phagocytosed parasites. Then, the drug specimen suspended in 1 mL RPMI-1640 was added, and the samples were incubated for 72 h at 37°C in 5% CO2. The medium was aspirated, the coverslips were removed, and then fixed with methanol and air-dried. After staining with Giemsa, 100 cells on the glass discs were counted. Three independent experiments in quadruplicate for each concentration were performed.
as §4, §5

[6] = system: intracellular L.donovani amastigotes, AG83-R, SSG, in macrophages; assay: microbe, parasite or virus in culture; type: cell-based; conditions: for Selectivity index (SI), AG83-R, SSG: CC50/IC50, intracellular; for IC50: Leishmania donovani, Macrophage, read-out: Cellular IC50, AG83-R, SSG
Method: as §2, §7, §4, §5

[7] = system: intracellular L.donovani amastigotes, GE1, in macrophages; assay: Antileishmanial activity against intracellular amastigotes, GE1; type: cell-based; conditions: for Selectivity index (SI), GE1: CC50/IC50, intracellular; for IC50: Leishmania donovani, Macrophage, mean ± σ, n = 4, read-out: Cellular IC50, GE1
Method: as §7, §4, §5

[8] = system: axenic L.donovani amastigotes, GE1 (isolated strain resistant to SSG); assay: Antileishmanial activity against axenic amastigotes, GE1; type: cell-based; conditions: for Resistance index (RI), GE1: IC50 against drug resistant strain / IC50 against wild-type strain (AG83), axenic; for IC50: Leishmania donovani
Method: as §1, §3, §4, §5

[9] = system: intracellular L.donovani amastigotes, wild-type AG83, in macrophages; assay: Antileishmanial activity against intracellular amastigotes, wild-type AG83; type: cell-based; conditions: for Selectivity index (SI), AG83: CC50/IC50, intracellular; for IC50: Leishmania donovani, Macrophage, mean ± σ, n = 4, read-out: Cellular IC50, Wild-type AG83
Method: as §7, §4, §5

[10] = system: wild-type AG83 promastigotes; assay: IC50 against wild-type AG83 promastigotes (used for generation of resistant strains); type: cell-based, L. donovani
Method: as §2

[11] = system: resident peritoneal macrophages; assay: Cytotoxicity studies (CC50) on peritoneal macrophages; type: cell-based, BALB/c mice; conditions: 48 h exposure, values for SSG given in μg/ml
Method: as §6

L.donovani = system: L.donovani; set-up: method as in PMID 25936561; conditions: L.donovani infection; cited from earlier work
liver parasite burden = system: liver parasite burden; set-up: method as in PMID 14695832, PMID 17715126; conditions: BALB/c mice; cited from earlier work
[12] = intracellular amastigotes, 72 h
[13] = axenic amastigotes, mean ± σ, n = 4
[14] = axenic amastigotes, values for SSG given in μg/ml, mean ± σ, n = 4
[15] = intracellular amastigotes, 72 h, values for SSG given in μg/ml

Row | Structure (SMILES) | Resistance index (RI), AG83-R, SSG [1] | IC50 [1] [nM] | Resistance index (RI), AG83-R, PMM [2] | IC50 [2] [nM] | CC50 at 48 h [3] [nM] | IC50 [4] [nM] | Selectivity index (SI), AG83-R, PMM [5] | IC50 ([5]; 72 h) [nM] | Selectivity index (SI), AG83-R, SSG [6] | IC50 ([6]; 72 h) [nM] | Selectivity index (SI), GE1 [7] | IC50 [7, 12] [nM] | Resistance index (RI), GE1 [8] | IC50 [8, 13] [nM] | Selectivity index (SI), AG83 [9] | IC50 [9, 12] [nM] | further results
1 | C[C@@H]1[C@H](O)[C@@H](C)/C=C/C=C/C=C/C=C/C=C/C=C/C=C/[C@H](O[C@@H]2O[C@H](C)[C@@H](O)[C@H](N)[C@@H]2O)C[C@@H]2O[C@](O)(C[C@@H](O)C[C@@H](O)[C@H](O)CC[C@@H](O)C[C@@H](O)CC(=O)O[C@H]1C)C[C@H](O)[C@H]2C(=O)O [AmB, amphotericin B] | 1.1 ± 0.1 | 300 ± 100 | 1.2 ± 0.2 | 300 ± 100 | 15000 ± 2000 | 200 ± 100 | 70 ± 10 | 300 ± 100 | 70 ± 10 | 200 ± 100 | 90 ± 10 | 200 ± 100 | 1.1 ± 0.2 | 300 ± 100 | 80 ± 10 | 200 ± 100 | 
2 | CCCCCCCCCCCCCCCCOP(=O)([O-])OCC[N+](C)(C)C [MF, miltefosine] | 1.3 ± 0.2 | 600 ± 100 | 1.1 ± 0.2 |  | 36000 ± 4000 | 500 ± 100 | 70 ± 10 |  | 60 ± 5 | 700 ± 100 | 80 ± 10 | 500 ± 100 | 1.1 ± 0.3 | 500 ± 100 | 100 ± 10 | 400 ± 100 | 
3 | NC[C@@H]1O[C@H](O[C@H]2[C@@H](O)[C@H](O[C@@H]3[C@@H](O)[C@H](N)C[C@H](N)[C@H]3O[C@H]3O[C@H](CO)[C@@H](O)[C@H](O)[C@H]3N)O[C@@H]2CO)[C@H](N)[C@@H](O)[C@@H]1O [PMM, paromomycin] | 32 ± 3 | 384000 ± 23000 | 27 ± 2 | 327000 ± 12000 | 260000 ± 20000 | 12000 ± 1000 | 2 ± 1 | 120000 ± 10000 | 2 ± 1 | 140000 ± 10000 | 13 ± 2 | 20000 ± 3000 | 2.1 ± 0.3 | 25000 ± 2000 | 30 ± 5 | 9000 ± 2000 | IC50 ([10]; Leishmania donovani, medium 199, read-out: IC50 against the parasite): 10000 nM
4 | O.O.O.O.O.O.O.O.O.O=C([O-])[C@@H]1[O][Sb](=[O])([O][Sb]2(=[O])[O][C@H]([C@H](O)CO)[C@H](O)[C@H](C(=O)[O-])[O]2)[O][C@H]([C@H](O)CO)[C@@H]1O.[Na+].[Na+].[Na+] (stereo partly drawn) [SSG, sodium stibogluconate] | 38 ± 4 |  | 32 ± 3 |  |  |  | 2 ± 1 |  | 1 ± 1 |  | 4 ± 2 |  | 4 ± 1 |  | 15 ± 4 |  | Axenic IC50, AG83-R, SSG [1, 14]: 133 ± 15 µg/mL; Axenic IC50, AG83-R, PMM [2, 14]: 113 ± 15 µg/mL; CC50 [11]: 27 ± 2 µg/mL; Axenic IC50, Wild-type AG83 ([4]; values for SSG given in μg/ml): 3.5 ± 0.7 µg/mL; Cellular IC50, AG83-R, PMM [5, 15]: 20 ± 2 µg/mL; Cellular IC50, AG83-R, SSG [6, 15]: 22 ± 2 µg/mL; Cellular IC50, GE1 [7, 15]: 7.5 ± 0.3 µg/mL; Axenic IC50, GE1 [8, 14]: 14 ± 2 µg/mL; Cellular IC50, Wild-type AG83 [9, 15]: 1.8 ± 0.2 µg/mL; IC50 against the parasite ([10]; medium 199): 3.6 µg/mL
5 | C[C@@H]1CC[C@H]2[C@@H](C)C(=O)O[C@@H]3O[C@@]4(C)CC[C@@H]1[C@]32OO4 [artemisinin] |  |  |  |  |  |  |  |  |  |  |  |  |  |  |  |  | Reduction of parasite burdens (liver and spleen) (L.donovani): ~ 50%
6 | CC(C)(C)C1CCC(CC2=C(OP(=O)(O)O)C(=O)c3ccccc3C2=O)CC1 (stereo not drawn) [buparvaquone-3-phosphate] |  |  |  |  |  |  |  |  |  |  |  |  |  |  |  |  | Reduction in the liver parasite burden (liver parasite burden): 34%
